Test results taken from paper PMC5823858, “Endogenous insensitivity to the Orco agonist VUAA1 reveals novel olfactory receptor complex properties in the specialist fly Mayetiola destructor” (Scientific Reports, 2018).
One block for each molecule: values may come before it.

Legend:
Assay in all cases: Fluo-4AM calcium fluorescence, plate reader
MdesOR115 + MdesOrco [1] = system: T1, MdesOR115 + MdesOrco; type: cell-based, Mayetiola destructor; details: agonist of OR; OR and Orco co-expressed
T1 construct: gene OR115; stoichiometry unknown; with Odorant receptor coreceptor

MdesOR115 + MdesOrco [2] = system: T1, MdesOR115 + MdesOrco; type: cell-based, Mayetiola destructor; details: agonist of OR; OR and mutant Orco co-expressed
Excerpt: Fluo-4AM calcium fluorescence, plate reader on MdesOR115 + MdesOrco | when co-expressed with either WT MdesOrco or MdesOrco^(H81F, N133L, A350S)

MdesOR115 + DmelOrco = system: T2, MdesOR115 + DmelOrco; type: cell-based, Mayetiola destructor; details: agonist of OR; heterospecific Orco co-expressed
T2 construct: gene OR115; heterospecific complex: M. destructor OR115 (V5 tag) with Drosophila melanogaster Orco (c-myc tag), TREx/HEK293; with Odorant receptor coreceptor (Drosophila melanogaster)

MdesOR115 + AsegOrco = system: T3, MdesOR115 + AsegOrco; type: cell-based, Mayetiola destructor; details: agonist of OR; heterospecific Orco co-expressed
T3 construct: gene OR115; heterospecific complex: M. destructor OR115 (V5 tag) with Agrotis segetum Orco (c-myc tag), TREx/HEK293; with Odorant receptor coreceptor (Agrotis segetum)

AsegOR7 + MdesOrco [3] = system: T4, AsegOR7 + MdesOrco; type: cell-based, Agrotis segetum; details: agonist of OR; heterospecific Orco co-expressed
T4 construct: gene OR7; heterospecific complex: A. segetum OR7 (V5 tag) with Mayetiola destructor Orco (c-myc tag), TREx/HEK293; with Odorant receptor coreceptor (Mayetiola destructor)

AsegOR7 + MdesOrco [4] = system: T4, AsegOR7 + MdesOrco; type: cell-based, Agrotis segetum; details: agonist of OR; heterospecific mutant Orco co-expressed
Excerpt: Fluo-4AM calcium fluorescence, plate reader on AsegOR7 + MdesOrco | when co-expressed with either version of MdesOrco

AsegOR7 + AsegOrco [5] = system: T5, AsegOR7 + AsegOrco; type: cell-based, Agrotis segetum; details: agonist of OR; OR and Orco co-expressed
T5 construct: gene OR7; stoichiometry unknown; with Odorant receptor coreceptor
Excerpt: Fluo-4AM calcium fluorescence, plate reader on AsegOR7 + AsegOrco | when AsegOR7 was co-expressed with WT AsegOrco the cells responded dose dependently

AsegOR7 + AsegOrco [6] = system: T5, AsegOR7 + AsegOrco; type: cell-based, Agrotis segetum; details: agonist of OR; OR and mutant Orco co-expressed
AsegOR7 + DmelOrco = system: T6, AsegOR7 + DmelOrco; type: cell-based, Agrotis segetum; details: agonist of OR; heterospecific Orco co-expressed
T6 construct: gene OR7; heterospecific complex: A. segetum OR7 (V5 tag) with Drosophila melanogaster Orco (c-myc tag), TREx/HEK293; with Odorant receptor coreceptor (Drosophila melanogaster)
Excerpt: Fluo-4AM calcium fluorescence, plate reader on AsegOR7 + DmelOrco | they responded well to their respective OR-specific ligand

MdesOrco [7] = target: T7, MdesOrco (Mayetiola destructor, UniProt A0A1D8GZG0, A350S/C230Q/C408S/H81F/I150T/N133L/T205L); type: cell-based
T7 construct: homomeric channel
T7 sequence (A0A1D8GZG0 1-466 H81F/N133L/I150T/T205L/C230Q/A350S/C408S): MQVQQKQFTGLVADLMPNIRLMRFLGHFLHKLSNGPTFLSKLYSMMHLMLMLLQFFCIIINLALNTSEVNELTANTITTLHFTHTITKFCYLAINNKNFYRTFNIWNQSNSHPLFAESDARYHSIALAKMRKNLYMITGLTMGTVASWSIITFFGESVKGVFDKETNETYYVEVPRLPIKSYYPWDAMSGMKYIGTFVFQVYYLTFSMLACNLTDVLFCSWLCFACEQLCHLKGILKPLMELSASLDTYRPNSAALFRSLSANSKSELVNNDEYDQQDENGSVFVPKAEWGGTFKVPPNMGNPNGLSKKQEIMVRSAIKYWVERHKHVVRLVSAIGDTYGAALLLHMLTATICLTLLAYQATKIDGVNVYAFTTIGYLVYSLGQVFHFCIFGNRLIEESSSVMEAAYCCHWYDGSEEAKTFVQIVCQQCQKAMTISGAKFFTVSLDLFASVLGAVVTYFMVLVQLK
Excerpt: Fluo-4AM calcium fluorescence, plate reader on MdesOrco | contained the seven point mutations responded well to VUAA1

MdesOrco [8] = target: T8, MdesOrco (Mayetiola destructor, UniProt A0A1D8GZG0, A350S/H81F/N133L); type: cell-based
T8 construct: homomeric channel
T8 sequence (A0A1D8GZG0 1-466 H81F/N133L/A350S): T7 sequence (A0A1D8GZG0 1-466 H81F/N133L/I150T/T205L/C230Q/A350S/C408S)
Excerpt: Fluo-4AM calcium fluorescence, plate reader on MdesOrco | MdesOrco^(H81F, N133L, A350S) responded similarly to VUAA1 in HEK293 cells

DmelOrco = target: T9, DmelOrco (Drosophila melanogaster, UniProt Q9VNB5); type: cell-based
T9 construct: gene Orco; homomeric channel
T9 sequence (Q9VNB5 1-486): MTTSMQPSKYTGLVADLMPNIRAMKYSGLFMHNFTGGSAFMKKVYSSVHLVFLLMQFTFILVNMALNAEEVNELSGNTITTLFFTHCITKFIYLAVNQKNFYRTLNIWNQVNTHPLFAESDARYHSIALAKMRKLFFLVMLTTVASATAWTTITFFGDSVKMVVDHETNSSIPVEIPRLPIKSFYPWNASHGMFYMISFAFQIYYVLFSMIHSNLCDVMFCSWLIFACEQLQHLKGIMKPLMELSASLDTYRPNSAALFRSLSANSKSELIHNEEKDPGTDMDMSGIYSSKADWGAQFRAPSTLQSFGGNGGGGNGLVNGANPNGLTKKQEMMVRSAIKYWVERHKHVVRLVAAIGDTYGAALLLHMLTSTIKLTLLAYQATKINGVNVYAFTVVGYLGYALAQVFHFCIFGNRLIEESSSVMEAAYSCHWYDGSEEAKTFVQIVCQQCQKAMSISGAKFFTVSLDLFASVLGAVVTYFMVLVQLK
Excerpt: Fluo-4AM calcium fluorescence, plate reader on DmelOrco | WT AsegOrco and DmelOrco responded dose-dependently to VUAA1

AsegOrco = target: T10, AsegOrco (Agrotis segetum, UniProt U5KJY5); type: cell-based
T10 construct: homomeric channel
T10 sequence (U5KJY5 2-473 limits assumed): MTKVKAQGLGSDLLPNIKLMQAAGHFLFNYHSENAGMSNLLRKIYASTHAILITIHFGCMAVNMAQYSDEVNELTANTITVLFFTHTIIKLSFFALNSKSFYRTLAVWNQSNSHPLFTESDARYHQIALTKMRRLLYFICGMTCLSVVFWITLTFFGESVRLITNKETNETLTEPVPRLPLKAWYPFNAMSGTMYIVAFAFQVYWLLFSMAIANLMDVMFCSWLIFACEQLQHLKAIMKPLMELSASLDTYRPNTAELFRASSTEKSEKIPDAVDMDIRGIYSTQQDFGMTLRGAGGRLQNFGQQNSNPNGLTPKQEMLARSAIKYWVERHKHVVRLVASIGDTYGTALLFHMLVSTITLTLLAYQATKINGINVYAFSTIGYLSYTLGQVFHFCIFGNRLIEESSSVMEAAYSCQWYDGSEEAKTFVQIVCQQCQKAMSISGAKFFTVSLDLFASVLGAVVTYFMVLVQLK
Excerpt: Fluo-4AM calcium fluorescence, plate reader on AsegOrco | WT AsegOrco and DmelOrco responded dose-dependently to VUAA1

DmelOR56a + DmelOrco = target: T11, DmelOR56a + DmelOrco (Drosophila melanogaster, UniProt Q9V8Y7); type: cell-based; details: agonist of OR; OR and Orco co-expressed
T11 construct: gene Or56a; stoichiometry unknown; with Odorant receptor coreceptor
T11 sequence (Q9V8Y7 1-419): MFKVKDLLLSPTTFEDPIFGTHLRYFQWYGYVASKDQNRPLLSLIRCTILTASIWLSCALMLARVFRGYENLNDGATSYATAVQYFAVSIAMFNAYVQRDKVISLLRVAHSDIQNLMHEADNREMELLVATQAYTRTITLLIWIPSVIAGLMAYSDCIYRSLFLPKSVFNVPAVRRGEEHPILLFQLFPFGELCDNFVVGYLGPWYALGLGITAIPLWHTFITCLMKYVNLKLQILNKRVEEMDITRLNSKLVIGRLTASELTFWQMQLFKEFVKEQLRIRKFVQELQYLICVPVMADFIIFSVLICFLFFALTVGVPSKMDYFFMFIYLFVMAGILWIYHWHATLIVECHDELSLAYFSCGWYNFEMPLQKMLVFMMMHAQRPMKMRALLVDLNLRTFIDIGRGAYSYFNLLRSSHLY
T11 sequence (Q9VNB5 1-486 partner): T9 sequence (Q9VNB5 1-486)
Excerpt: Fluo-4AM calcium fluorescence, plate reader on DmelOR56a + DmelOrco | when DmelOR56a was co-expressed with WT DmelOrco the cells responded dose-dependently to geosmin

DmelOR56a + MdesOrco = target: T12, DmelOR56a + MdesOrco (Drosophila melanogaster, UniProt Q9V8Y7); type: cell-based; details: agonist of OR; heterospecific Orco co-expressed
T12 construct: gene Or56a; heterospecific complex: D. melanogaster OR56a (V5 tag) with Mayetiola destructor Orco (c-myc tag), TREx/HEK293; with Odorant receptor coreceptor (Mayetiola destructor)
T12 sequence (Q9V8Y7 1-419): T11 sequence (Q9V8Y7 1-419)
T12 sequence (A0A1D8GZG0 1-466 partner): T7 sequence (A0A1D8GZG0 1-466 H81F/N133L/I150T/T205L/C230Q/A350S/C408S)

DmelOR56a + AsegOrco = target: T13, DmelOR56a + AsegOrco (Drosophila melanogaster, UniProt Q9V8Y7); type: cell-based; details: agonist of OR; heterospecific Orco co-expressed
T13 construct: gene Or56a; heterospecific complex: D. melanogaster OR56a (V5 tag) with Agrotis segetum Orco (c-myc tag), TREx/HEK293; with Odorant receptor coreceptor (Agrotis segetum)
T13 sequence (Q9V8Y7 1-419): T11 sequence (Q9V8Y7 1-419)
T13 sequence (U5KJY5 2-473 partner limits assumed): T10 sequence (U5KJY5 2-473 limits assumed)
Excerpt: Fluo-4AM calcium fluorescence, plate reader on DmelOR56a + AsegOrco | they responded well to their respective OR-specific ligand

SMILES: CC/C=C/C=C/CCCCC[C@H](C)OC(C)=O [(2S,8E,10E)-8,10-tridecadien-2-yl acetate]
EC50 (MdesOR115 + MdesOrco [1]): 2600 nM
EC50 (MdesOR115 + MdesOrco [2]): 3100 nM
EC50 (MdesOR115 + DmelOrco): 6200 nM
EC50 (MdesOR115 + AsegOrco): 3500 nM

SMILES: CCCC/C=C\CCCCOC(C)=O [(Z)-5-decenyl acetate]
EC50 (AsegOR7 + MdesOrco [3]): 2500 nM
EC50 (AsegOR7 + MdesOrco [4]): 2800 nM
EC50 (AsegOR7 + AsegOrco [5]): 2300 nM
EC50 (AsegOR7 + AsegOrco [6]): 2200 nM
EC50 (AsegOR7 + DmelOrco): 1200 nM

SMILES: CCc1ccc(NC(=O)CSc2nnc(-c3cccnc3)n2CC)cc1 [VUAA1, N-(4-ethylphenyl)-2-((4-ethyl-5-(3-pyridinyl)-4H-1,2,4-triazol-3-yl)thio)acetamide]
EC50 (MdesOrco [7]): 26300 nM
EC50 (MdesOrco [8]): 25000 nM
EC50 (DmelOrco): 15300 nM
EC50 (AsegOrco): 27300 nM

EC50 (DmelOR56a + DmelOrco): 19.1 nM
EC50 (DmelOR56a + MdesOrco): 93.5 nM
EC50 (DmelOR56a + AsegOrco): 37.2 nM
SMILES: C[C@H]1CCC[C@@]2(C)CCCC[C@]12O [geosmin]
